In patent publication US8349878B2 (Laboratorios del Dr. Esteve, S.A., priority 2006, dated 2013):
Counter-ions that a name gives are not always drawn. Like-named read-outs stand apart in the source and are kept apart here.

Target: T1, σ1-receptor (Cavia porcellus, UniProt Q60492)
T1 construct: guinea pig brains were homogenized; from tissue; host or cells: guinea pig brain membranes
Assay: Sigma-1 receptor binding assay, [3H](+)-pentazocine displacement in guinea pig brain membranes
Conditions: for inhibition at 0.01 µM: read-out: Sigma-1 Inhibition percent (0.01 μM); for inhibition at 0.1 µM: read-out: Sigma-1 Inhibition percent (0.1 μM)
Protocol: The following protocol was followed:
In brief, guinea pig brains were homogenized in 10 vols. (w/v) of Tris-HCl 50 mM 0.32 M sucrose, pH 7.4, with a Kinematica Polytron PT 3000 at 15000 r.p.m. for 30 s. The homogenate was centrifuged at 1000 g for 10 min at 4° C. and the supernatants collected and centrifuged again at 48000 g for 15 min at 4° C. The pellet was resuspended in 10 volumes of Tris-HCl buffer (50 mM, pH 7.4), incubated at 37° C. for 30 min, and centrifuged at 48000 g for 20 min at 4° C. Following this, the pellet was resuspended in fresh Tris-HCl buffer (50 mM, pH 7.4) and stored on ice until use.
Each assay tube contained 10 μL of [^3H](+)-pentazocine (final concentration of 0.5 nM), 900 μL of the tissue suspension to a final assay volume of 1 mL and a final tissue concentration of approximately 30 mg tissue net weight/mL. Non-specific binding was defined by addition of a final concentration of 1 μM haloperidol. […] Filters were then washed with four times with 4 mL of cold Tris-HCl buffer (50 mM, pH 7.4). Following addition of scintillation cocktail, the samples were allowed to equilibrate overnight.

[1] = [3H](+)-pentazocine 0.5 nM, guinea pig brain membranes, read-out: Sigma-1 Ki (nm) Displ. 10^−7 M (10^−8 M)
[2] = compound at 0.01 μM, [3H](+)-pentazocine 0.5 nM, guinea pig brain membranes
[3] = compound at 0.1 μM, [3H](+)-pentazocine 0.5 nM, guinea pig brain membranes

T1 sequence (Q60492 whole entry): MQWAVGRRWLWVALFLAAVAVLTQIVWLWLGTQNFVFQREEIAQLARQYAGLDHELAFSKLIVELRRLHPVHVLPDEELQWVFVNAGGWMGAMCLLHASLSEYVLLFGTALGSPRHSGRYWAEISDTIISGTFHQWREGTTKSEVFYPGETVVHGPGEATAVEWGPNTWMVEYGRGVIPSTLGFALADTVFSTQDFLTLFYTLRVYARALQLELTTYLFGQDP

Compound | Ki [1] | inhibition at 0.01 µM [2] | inhibition at 0.1 µM [3] | Ki | inhibition at 0.01 µM | inhibition at 0.1 µM
Cc1nc(SCCN2CCOCC2)nn1-c1ccc(Cl)c(Cl)c1 [compound 1, oxalate] | 1.1 nM | 102% | 107% | – | – | –
Cc1nc(SCCN2CCCC2)nn1-c1ccc(Cl)c(Cl)c1 [compound 3, oxalate] | 1.4 nM | 103% | 106% | – | – | –
Cc1nc(SCCN(C(C)C)C(C)C)nn1-c1ccc(Cl)c(Cl)c1 [compound 4, oxalate] | – | – | – | 1.1 nM | 105% | 109%
Cc1nc(SCCN2CCCCCC2)nn1-c1ccc(Cl)c(Cl)c1 [compound 6, 1-[2-(1-(3,4-dichlorophenyl)-5-methyl-1H-1,2,4-triazol-3-yl-thio)ethyl]azepane oxalate] | – | 90.6% | 99.2% | – | – | –
Cc1nc(SCCCCN2CCOCC2)nn1-c1ccc(Cl)c(Cl)c1 [compound 11, 4-[4-(1-(3,4-dichlorophenyl)-5-methyl-1H-1,2,4-triazol-3-yl-thio)butyl]morpholine oxalate] | – | 14.5% | 66.9% | – | – | –
Cc1nc(SCCCCCN2CCCCC2)nn1-c1ccc(Cl)c(Cl)c1 [compound 12, 1-[5-(1-(3,4-dichlorophenyl)-5-methyl-1H-1,2,4-triazol-3-ylthio)pentyl]piperidine oxalate] | – | 52.1% | 82.8% | – | – | –
Cc1nc(SCCCCCN2CCOCC2)nn1-c1ccc(Cl)c(Cl)c1 [compound 13, 4-[5-(1-(3,4-Dichlorophenyl)-5-methyl-1H-1,2,4-triazol-3-ylthio)pentyl]morpholine oxalate] | – | 4.3% | 58.2% | – | – | –
Cc1nc(SCCCCCN2CCCC2)nn1-c1ccc(Cl)c(Cl)c1 [compound 14, 1-[5-(1-(3,4-dichlorophenyl)-5-methyl-1H-1,2,4-triazol-3-ylthio)pentyl]pyrrolidine oxalate] | – | 6% | 52.5% | – | – | –
Cc1nc([S+]([O-])CCN2CCOCC2)nn1-c1ccc(Cl)c(Cl)c1 (stereo not shown) [compound 16, 4-[2-(1-(3,4-dichlorophenyl)-5-methyl-1H-1,2,4-triazol-3-yl-sulfinyl)-ethyl]-morpholine] | – | 28.6% | 42% | – | – | –
Cc1nc([S+]([O-])CCN(C(C)C)C(C)C)nn1-c1ccc(Cl)c(Cl)c1 (stereo not shown) [compound 17] | – | – | – | 4 nM | 62.3% | 93.9%
Cc1nc(S(=O)(=O)CCN2CCCC2)nn1-c1ccc(Cl)c(Cl)c1 [compound 19] | 2.2 nM | 71.8% | 96.4% | – | – | –
Cc1nc(OCCN2CCCCC2)nn1-c1ccc(Cl)c(Cl)c1 [compound 22] | 3.1 ± 1.6 nM | 54.3% | 94.8% | – | – | –
CCN(CC)CCOc1nc(C)n(-c2ccc(Cl)c(Cl)c2)n1 [compound 23, 2-[1-(3,4-Dichlorophenyl)-5-methyl-1H-1,2,4-triazol-3-yloxy]-N,N-diethylethanamine] | – | 32.2% | 85% | – | – | –
Cc1nc(OCCN2CCOCC2)nn1-c1ccc(Cl)c(Cl)c1 [compound 25, 4-[2-(1-(3,4-Dichlorophenyl)-5-methyl-1H-1,2,4-triazol-3-yloxy)ethyl]morpholine oxalate] | – | 33.8% | 83.8% | – | – | –
Cc1nc(OCCN2CCOCC2)nn1-c1ccccc1 [compound 28, 4-[2-(5-methyl-1-phenyl-1H-1,2,4-triazol-3-yloxy)ethyl]morpholine] | – | -20.9% | -3.4% | – | – | –
Cc1nc(OCCCCN2CCOCC2)nn1-c1ccccc1 [compound 30, 4-[4-(5-methyl-1-phenyl-1H-1,2,4-triazol-3-yloxy)butyl]morpholine] | – | -15.1% | 18.3% | – | – | –

Now from value to compound, other results behind:

Ki [1] | inhibition at 0.01 µM [2] | inhibition at 0.1 µM [3] | Compound | Ki | inhibition at 0.01 µM | inhibition at 0.1 µM
0.8 nM | 105% | 109% | Cc1nc(SCCN2CCCCC2)nn1-c1ccc(Cl)c(Cl)c1 [compound 2, 1-[2-(3,4-dichlorophenyl)-5-methyl-1H-1.2.4-triazole-3-yl-thioethyl]piperidine oxalate] | – | – | –
1.1 nM | 104% | 109% | CCN(CC)CCSc1nc(C)n(-c2ccc(Cl)c(Cl)c2)n1 [compound 5, 2-(1-(3,4-dichlorophenyl)-5-methyl-1H-1,2,4-triazole-3-yl-thio]-N,N-diethyl ethanamine oxalate] | – | – | –
8.2 nM | 67.8% | 85.5% | Cc1nc(SCCCN2CCOCC2)nn1-c1ccc(Cl)c(Cl)c1 [compound 7, 4-[3-(1-(3,4-Dichlorophenyl)-5-methyl-1H-1,2,4-triazol-3-ylthio)propyl]morpholine oxalate] | – | – | –
2.1 nM | 57.4% | 82.5% | Cc1nc(SCCCN2CCCC2)nn1-c1ccc(Cl)c(Cl)c1 [compound 8, 1-[3-(1-(3,4-dichlorophenyl)-5-methyl-1H-1,2,4-triazol-3-yl-thio)propyl]-4-pyrrolidine oxalate] | – | – | –
9 nM | 74.2% | 89% | Cc1nc(SCCCN2CCC(c3ccccc3)CC2)nn1-c1ccc(Cl)c(Cl)c1 [compound 9, 1-[3-(1-(3,4-dichlorophenyl)-5-methyl-1H-1,2,4-triazol-3-ylthio)propyl]-4-phenylpiperidine oxalate] | – | – | –
– | 27.3% | 88.1% | Cc1nc(SCCCCN2CCC(c3ccccc3)CC2)nn1-c1ccc(Cl)c(Cl)c1 [compound 10, 1-[4-(1-(3,4-dichlorophenyl)-5-methyl-1H-1,2,4-triazol-3-yl-thio)butyl]-4-phenylpiperidine oxalate] | – | – | –
7 nM | 47.2% | 88.9% | Cc1nc([S+]([O-])CCN2CCCC2)nn1-c1ccc(Cl)c(Cl)c1 (stereo not shown) [compound 15, 1-[2-(1-(3,4-dichlorophenyl)-5-methyl-1H-1,2,4-triazol-3-yl-sulfinyl)ethyl]pyrrolidine] | – | – | –
– | -39.5% | 37.2% | Cc1nc([S+]([O-])CCCCN2CCC(c3ccccc3)CC2)nn1-c1ccc(Cl)c(Cl)c1 (stereo not shown) [compound 18, 1-[4-(1-(3,4-Dichlorophenyl)-5-methyl-1H-1,2,4-triazol-3-ylsulfinyl)butyl]-4-phenylpiperidine] | – | – | –
16.7 nM | 51.2% | 82.1% | CCN(CC)CCS(=O)(=O)c1nc(C)n(-c2ccc(Cl)c(Cl)c2)n1 [compound 20, 2-[1-(3,4-Dichlorophenyl)-5-methyl-1H-1,2,4-triazol-3-ylsulfonyl]-N,N-diethylethanamine] | – | – | –
– | 8.3% | 20.5% | Cc1nc(S(=O)(=O)CCCCN2CCOCC2)nn1-c1ccc(Cl)c(Cl)c1 [compound 21, 4-[4-(1-(3,4-Dichlorophenyl)-5-methyl-1H-1,2,4-triazol-3-yl-sulfonyl)-butyl]morpholine] | – | – | –
– | 39.5% | 91.8% | Cc1nc(OCCN2CCCC2)nn1-c1ccc(Cl)c(Cl)c1 [compound 24, 1-[2-(1-(3,4-Dichlorophenyl)-5-methyl-1H-1,2,4-triazol-3-yloxy)ethyl]pyrrolidine] | – | – | –
– | 7.3% | 15.2% | CCN(CC)CCOc1nc(C)n(-c2ccccc2)n1 [compound 26, 2-(5-methyl-1-phenyl-1H-1,2,4-triazol-3-yloxy)-N,N-diethyl ethanamine] | – | – | –
– | 8.1% | 30.4% | Cc1nc(OCCN2CCCC2)nn1-c1ccccc1 [compound 27, 1-[2-(5-methyl-1-phenyl-1H-1,2,4-triazol-3-yloxy)ethyl]pyrrolidine] | – | – | –
– | 5.8% | 46.1% | Cc1nc(OCCN2CCCCC2)nn1-c1ccccc1 [compound 29, 1-[2-(5-methyl-1-phenyl-1H-1,2,4-triazol-3-yloxy)ethyl]piperidine] | – | – | –
